This note sets out measurements from patent publication US20240158446A1, “CYCLIC COMPOUND HAVING SELECTIVE INHIBITORY ACTION ON KRAS OVER HRAS AND NRAS” (CHUGAI SEIYAKU KABUSHIKI KAISHA, priority 2021, published 2024).

Like-named read-outs stand apart in the source and are kept apart here.

For test [1], the system named is human lung cancer strain NCI-H441.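 Also: cell proliferation inhibition after four days measured by CellTiter-Glo.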
Test [2] concerns the target GDP-bound KRAS wild-type protein (Homo sapiens, UniProt P01116). In words: Binding to KRAS by surface plasmon resonance (SPR), Single Cycle Kinetics. Conditions: SPR, Single Cycle Kinetics, GDP-bound KRAS wild-type protein, read-out: KRAS KD.
Test [3] deals with GDP-bound HRAS wild-type protein (Homo sapiens, UniProt P01112). In words: Binding to HRAS by surface plasmon resonance (SPR), Single Cycle Kinetics. As to conditions: SPR, GDP-bound HRAS wild-type protein vs GDP-bound KRAS wild-type protein.
GDP-bound HRAS wild-type protein, sequence (P01112 whole entry): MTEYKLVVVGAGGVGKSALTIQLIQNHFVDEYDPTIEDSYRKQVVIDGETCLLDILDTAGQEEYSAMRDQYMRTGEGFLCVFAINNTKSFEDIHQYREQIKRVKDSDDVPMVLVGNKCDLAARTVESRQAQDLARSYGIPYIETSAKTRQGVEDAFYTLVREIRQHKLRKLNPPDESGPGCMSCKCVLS
Test [4] has as its target GDP-bound NRAS wild-type protein (Homo sapiens, UniProt P01111). In words: Binding to NRAS by surface plasmon resonance (SPR), Single Cycle Kinetics. Conditions: SPR, GDP-bound NRAS wild-type protein vs GDP-bound KRAS wild-type protein.

GDP-bound KRAS wild-type protein, sequence (P01116 whole entry): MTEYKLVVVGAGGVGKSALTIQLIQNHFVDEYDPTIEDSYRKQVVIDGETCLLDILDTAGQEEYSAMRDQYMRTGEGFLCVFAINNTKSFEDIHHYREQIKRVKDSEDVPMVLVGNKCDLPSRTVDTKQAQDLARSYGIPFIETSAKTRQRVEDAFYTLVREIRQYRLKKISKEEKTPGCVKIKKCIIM
GDP-bound NRAS wild-type protein, sequence (P01111 whole entry): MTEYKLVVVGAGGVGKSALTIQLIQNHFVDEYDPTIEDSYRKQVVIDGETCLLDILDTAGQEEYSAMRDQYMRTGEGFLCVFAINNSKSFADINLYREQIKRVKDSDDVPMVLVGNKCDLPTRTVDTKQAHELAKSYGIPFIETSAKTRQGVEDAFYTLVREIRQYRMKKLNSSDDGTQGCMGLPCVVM

In test [1], `CCO[C@@H]1C[C@H]2C(=O)NC3(CCC3)C(=O)N(C)[C@@H](C3CCCC3)C(=O)N(C)[C@H](C(=O)N3CCCC3)CC(=O)N(C)[C@@H](CC3CCC3)C(=O)N[C@@H]([C@@H](C)CC)C(=O)N(C)CC(=O)N(C)[C@H]3C/C=C\CCN(C3=O)[C@@H](Cc3ccc(C)cc3)C(=O)N(C)CC(=O)N[C@@H](CCc3cc(F)c(C(F)(F)F)c(F)c3)C(=O)N2C1` [PP1425] had an IC50 of 20.2 nM. Further, in test [2] (1:1 binding model), the Kd amounted to 0.24 nM. The “HRAS/KRAS (ratio of KD value for HRAS to KD value for KRAS)” value in test [3] (KD ratio class) is “B (a compound having 3 or more and less than 10 is denoted as B)”. Also, the “NRAS/KRAS (ratio of KD value for NRAS to KD value for KRAS)” value in test [4] (KD ratio class) is “A (a compound having 10 or more and less than 20 is denoted as A)”.
In test [1], `CCO[C@@H]1C[C@H]2C(=O)NC3(CCC3)C(=O)N(C)[C@@H](C3CCCC3)C(=O)N(C)[C@H](C(=O)N3CCOCC3)CC(=O)N(C)[C@@H](CC(F)F)C(=O)N[C@@H]([C@@H](C)CC)C(=O)N(C)CC(=O)N(C)[C@H]3C/C=C\CCN(C3=O)[C@@H](Cc3ccc(C(F)(F)F)cc3)C(=O)N(C)CC(=O)N[C@@H](CCc3cc(F)c(C(F)(F)F)c(F)c3)C(=O)N2C1` [PP1285] displayed a concentration for half-maximal inhibition (IC50) of 24.6 nM. The dissociation constant (Kd) in test [2] (1:1 binding model) turned out to be 0.15 nM. Also, the “HRAS/KRAS (ratio of KD value for HRAS to KD value for KRAS)” value in test [3] (KD ratio class) is “A (a compound having 10 or more and less than 20 is denoted as A)”. Also, in test [4] (KD ratio class), the “NRAS/KRAS (ratio of KD value for NRAS to KD value for KRAS)” value was “AA (a compound having 20 or more is denoted as AA)”.
Turning to `CC[C@H](C)[C@@H]1NC(=O)[C@H](CC)N(C)C(=O)C[C@@H](C(=O)N(C)C)N(C)C(=O)[C@H](C2CCCC2)N(C)C(=O)C2(CCC2)NC(=O)[C@@H]2C[C@@H](OC)CN2C(=O)[C@H](CCc2cc(F)c(C(F)(F)F)c(F)c2)NC(=O)CN(C)C(=O)[C@H](Cc2ccc(C(F)(F)F)cc2)N2CC/C=C\C[C@@H](C2=O)N(C)C(=O)CN(C)C1=O` [PP1130, (2S,8S,12R,14S,20S,23S,27S,30S,36S,38Z)-20-cyclopentyl-8-[2-[3,5-difluoro-4-(trifluoromethyl)phenyl]ethyl]-27-ethyl-12-methoxy-N,N,4,19,22,26,32,35-octamethyl-30-[(1S)-1-methylpropyl]-3,6,9,15,18,21,25,28,31,34,42-undecaoxo-2-[[4-(trifluoromethyl)phenyl]methyl]spiro[1,4,7,10,16,19,22,26,29,32,35-undecazatricyclo[34.5.1.0^10,14]dotetracont-38-ene-17,1′-cyclobutane]-23-carboxamide], half-maximal inhibition in test [1] (IC50) was put at 19.6 nM. In test [2], the Kd was 0.035 nM. Moreover, the “HRAS/KRAS (ratio of KD value for HRAS to KD value for KRAS)” value in test [3] was “B (a compound having 3 or more and less than 10 is denoted as B)”. The “NRAS/KRAS (ratio of KD value for NRAS to KD value for KRAS)” value in test [4] was “A (a compound having 10 or more and less than 20 is denoted as A)”.
On to `CCO[C@@H]1C[C@H]2C(=O)NC3(CCC3)C(=O)N(C)[C@@H](C3CCCC3)C(=O)N(C)[C@H](C(=O)N(C)C)CC(=O)N(C)[C@@H](CC3CC3)C(=O)N[C@@H]([C@@H](C)CC)C(=O)N(C)CC(=O)N(C)[C@H]3CCCCCN(C3=O)[C@@H](Cc3ccc(F)cc3)C(=O)N(C)CC(=O)N[C@@H](CCc3cc(F)c(C(F)(F)F)c(F)c3)C(=O)N2C1` [PP1192], for which the concentration for half-maximal inhibition (IC50) in test [1] came to 10.5 nM. The Kd in test [2] was 0.04 nM. The “HRAS/KRAS (ratio of KD value for HRAS to KD value for KRAS)” value in test [3] is “A (a compound having 10 or more and less than 20 is denoted as A)”. Further, the “NRAS/KRAS (ratio of KD value for NRAS to KD value for KRAS)” value in test [4] was “B (a compound having 3 or more and less than 10 is denoted as B)”.
In turn, `CCCCCC[C@H]1C(=O)N[C@@H]([C@@H](C)CC)C(=O)N(C)CC(=O)N(C)[C@H]2C/C=C\CCN(C2=O)[C@@H](Cc2ccc(C(F)(F)F)cc2)C(=O)N(C)CC(=O)N[C@@H](CCc2ccc(C(F)(F)F)c(OC)c2)C(=O)N2C[C@H](OCC)C[C@H]2C(=O)NC2(CCC2)C(=O)N(C)[C@@H](C2CCCC2)C(=O)N(C)[C@H](C(=O)N(C)C)CC(=O)N1C` [PP1246, (2S,8S,12R,14S,20S,23S,27S,30S,36S,38Z)-20-cyclopentyl-12-ethoxy-27-hexyl-8-[2-[3-methoxy-4-(trifluoromethyl)phenyl]ethyl]-N,N,4,19,22,26,32,35-octamethyl-30-[(1S)-1-methylpropyl]-3,6,9,15,18,21,25,28,31,34,42-undecaoxo-2-[[4-(trifluoromethyl)phenyl]methyl]spiro[1,4,7,10,16,19,22,26,29,32,35-undecazatricyclo[34.5.1.0^10,14]dotetracont-38-ene-17,1′-cyclobutane]-23-carboxamide] gave an IC50 in test [1] of 9 nM. Moreover, the dissociation constant (Kd) in test [2] (1:1 binding model) amounted to 0.081 nM. In test [3] (KD ratio class), the “HRAS/KRAS (ratio of KD value for HRAS to KD value for KRAS)” value was “A (a compound having 10 or more and less than 20 is denoted as A)”. For the same compound, the “NRAS/KRAS (ratio of KD value for NRAS to KD value for KRAS)” value in test [4] (KD ratio class) was “A (a compound having 10 or more and less than 20 is denoted as A)”.
For the compound `CCO[C@@H]1C[C@H]2C(=O)NC3(CCC3)C(=O)N(C)[C@@H](C(CC)CC)C(=O)N(C)[C@H](C(=O)N(C)C)CC(=O)N(C)[C@@H](CC)C(=O)N[C@@H]([C@@H](C)CC)C(=O)N(C)CC(=O)N(C)[C@H]3C/C=C\CCN(C3=O)[C@@H](Cc3ccc(C(F)(F)F)cc3)C(=O)N(C)CC(=O)N[C@@H](CCc3ccc(C(F)(F)F)c(OC)c3)C(=O)N2C1` [PP1207], the 50% inhibitory concentration (IC50) in test [1] was 29.9 nM. Also, the Kd in test [2] (1:1 binding model) came to 0.21 nM. Further, the “HRAS/KRAS (ratio of KD value for HRAS to KD value for KRAS)” value in test [3] (KD ratio class) is “A (a compound having 10 or more and less than 20 is denoted as A)”. Moreover, in test [4] (KD ratio class), the “NRAS/KRAS (ratio of KD value for NRAS to KD value for KRAS)” value is on record as “AA (a compound having 20 or more is denoted as AA)”.
Take `CCCN1CC(=O)NC2(CCC2)C(=O)N(C)[C@@H](C2CCCC2)C(=O)N(C)[C@H](C(=O)N(C)C)CC(=O)N(C)[C@@H](CC)C(=O)N[C@@H]([C@@H](C)CC)C(=O)N(C)CC(=O)N(C)[C@H]2C/C=C\CCN(C2=O)[C@@H](Cc2ccc(C(F)(F)F)cc2)C(=O)N(C)CC(=O)N[C@@H](CCc2cc(F)c(C(F)(F)F)c(F)c2)C1=O` [PP1141]: inhibition in test [1] was half-maximal at 424 nM (IC50). The Kd in test [2] was 0.32 nM. In test [3], the “HRAS/KRAS (ratio of KD value for HRAS to KD value for KRAS)” value is “A (a compound having 10 or more and less than 20 is denoted as A)”. Also, the “NRAS/KRAS (ratio of KD value for NRAS to KD value for KRAS)” value in test [4] is on record as “AA (a compound having 20 or more is denoted as AA)”.
With `CCO[C@@H]1C[C@H]2C(=O)NC3(CCC3)C(=O)N(C)[C@@H](C3CCCC3)C(=O)N(C)[C@H](C(=O)N3CCCC3)CC(=O)N(C)[C@@H](CC3CCCC3)C(=O)N[C@@H]([C@@H](C)CC)C(=O)N(C)CC(=O)N(C)[C@H]3C/C=C\CCN(C3=O)[C@@H](Cc3ccc(F)cc3)C(=O)N(C)CC(=O)N[C@@H](CCc3ccc4sccc4c3)C(=O)N2C1` [PP1391], the IC50 in test [1] was 271 nM. For the same compound, in test [2] (1:1 binding model), the equilibrium dissociation constant (Kd) amounted to 1.6 nM. In test [3] (KD ratio class), the “HRAS/KRAS (ratio of KD value for HRAS to KD value for KRAS)” value is “A (a compound having 10 or more and less than 20 is denoted as A)”. Moreover, the “NRAS/KRAS (ratio of KD value for NRAS to KD value for KRAS)” value in test [4] (KD ratio class) was “A (a compound having 10 or more and less than 20 is denoted as A)”.
For `CC[C@H](C)[C@@H]1NC(=O)[C@H](CC)N(C)C(=O)C[C@@H](C(=O)N(C)C)N(C)C(=O)[C@H](C2CCCC2)N(C)C(=O)C2(CCC2)NC(=O)[C@@H]2C[C@H](C)CN2C(=O)[C@H](CCc2cc(F)c(C(F)(F)F)c(F)c2)NC(=O)CN(C)C(=O)[C@H](CC2CCC(F)(F)CC2)N2CC/C=C\C[C@@H](C2=O)N(C)C(=O)CN(C)C1=O` [PP1457, (2S,8S,12S,14S,20S,23S,27S,30S,36S,38Z)-20-cyclopentyl-2-[(4,4-difluorocyclohexyl)methyl]-8-[2-[3,5-difluoro-4-(trifluoromethyl)phenyl]ethyl]-27-ethyl-N,N,4,12,19,22,26,32,35-nonamethyl-30-[(1S)-1-methylpropyl]-3,6,9,15,18,21,25,28,31,34,42-undecaoxo-spiro[1,4,7,10,16,19,22,26,29,32,35-undecazatricyclo[34.5.1.0^10,14]dotetracont-38-ene-17,1′-cyclobutane]-23-carboxamide], in test [1], the IC50 stood at 30.4 nM. The dissociation constant Kd in test [2] (1:1 binding model) is 0.15 nM. Also, the “HRAS/KRAS (ratio of KD value for HRAS to KD value for KRAS)” value in test [3] (KD ratio class) was “A (a compound having 10 or more and less than 20 is denoted as A)”. In addition, the “NRAS/KRAS (ratio of KD value for NRAS to KD value for KRAS)” value in test [4] (KD ratio class) is “A (a compound having 10 or more and less than 20 is denoted as A)”.
Compound `CCO[C@@H]1C[C@H]2C(=O)NC3(CCC3)C(=O)N(C)[C@@H](C(CC)CC)C(=O)N(C)[C@H](C(=O)N(C)C)CC(=O)N(C)[C@@H](CC(C)C)C(=O)N[C@@H]([C@@H](C)CC)C(=O)N(C)CC(=O)N(C)[C@H]3C/C=C\CCN(C3=O)[C@@H](Cc3ccc(C(F)(F)F)cc3)C(=O)N(C)CC(=O)N[C@@H](CCc3ccc(Cl)c(Cl)c3)C(=O)N2C1` [PP1217] yielded an IC50 in test [1] of 17.8 nM. Besides, in test [2] (1:1 binding model), the dissociation constant (Kd) is 0.48 nM. In addition, the “HRAS/KRAS (ratio of KD value for HRAS to KD value for KRAS)” value in test [3] (KD ratio class) is “A (a compound having 10 or more and less than 20 is denoted as A)”. Besides, in test [4] (KD ratio class), the “NRAS/KRAS (ratio of KD value for NRAS to KD value for KRAS)” value is on record as “AA (a compound having 20 or more is denoted as AA)”.
